According to patent US20230263712A1, “AN ORAL CARE ANTIMICROBIAL COMPOSITION, PROCESS FOR PREPARING THE SAME AND METHOD OF USE THEREOF” (ISP INVESTMENTS LLC, priority 2020, published 2023):
Where two headings read alike, the source gives them in different places.

Tested on: Streptococcus mutans UA159
Assay: Checkerboard microplate synergy assay (MIC, Synergy Index by the Kull method)
Format: cell-based
Details: for HPB Qa: MIC of compound A (HPB) when used in combination with compound B: HPB concentration in the combination with the labelled compound B; for SI index (Synergy Index = Qa/QA + Qb/QB): combination of HPB (raspberry ketone) with the labelled compound B, SI <1 synergistic
Method: The synergistic antimicrobial effect was determined using the commonly accepted method described by Kull […]. and Mayer, R. L. 1961. Applied Microbiology, 9:538-541 Brief description of the assay: Standard checkerboard approach was used to make all the dilutions. HPB (compound A) solution was prepared in DMSO and then serially diluted using a 96-well dilution plate. Automated liquid handler was then used to stamp multiple assay plates out of this dilution plate. Each well of the assay plate was then supplemented with a predetermined concentration of the second antimicrobial (compound B). The final concentration of DMSO was kept constant across the plate for each assay, not exceeding 3% (w/w). Then, S. mutans cell suspension in Todd Hewitt Broth supplemented with yeast extract (THYEB) was added to the appropriate wells of the assay plate with the final cell density being 10^6 cfu/ml. The assay plates were incubated for 48 hours at 37° C. in the atmosphere containing 5% CO2 prior to being evaluated. The lowest concentration of each compound (or a mixture of the two compounds) to inhibit visible growth was taken as the minimum inhibitory concentration (MIC). The MIC was taken as the end point of activity. End points for the combination of compound A (HPB) and compound B were then compared to the end points for each compound being used individually.

[1] = S. mutans, THYEB, 48 hours at 37° C., 5% CO2
[2] = Streptococcus mutans, UA159, S. mutans, THYEB, 48 hours at 37° C., 5% CO2, alone, read-out: Compound B QB: MIC of compound B acting alone

HPB Qa: MIC of compound A (HPB) when used in combination with compound B [1]	Compound B Qb: MIC of compound B when used in combination with compound A (HPB) [1]	MIC [2]	Compound	SI index (Synergy Index = Qa/QA + Qb/QB) (S. mutans)	other results
4,000 ppm	0.4 ppm	–	N=C(NCCCCCCNC(=N)NC(=N)Nc1ccc(Cl)cc1)NC(=N)Nc1ccc(Cl)cc1.O=C(O)[C@H](O)[C@@H](O)[C@H](O)[C@H](O)CO.O=C(O)[C@H](O)[C@@H](O)[C@H](O)[C@H](O)CO [Chlorhexidine digluconate]	≤0.75	Compound B QB: MIC of compound B acting alone (S. mutans, THYEB, 48 hours at 37° C., 5% CO2, alone): 1.6 ppm
–	–	–	CC(=O)CCc1ccc(O)cc1 [HPB, 4-(4-hydroxyphenyl) butan-2-one]	–	MIC (Streptococcus mutans, UA159, S. mutans, THYEB, 48 hours at 37° C., 5% CO2, alone, read-out: HPB QA: MIC of compound A (HPB) acting alone): ≥ 8000 µg/mL
125 ppm	250 ppm	500 µg/mL	Cc1cc(O)ccc1C(C)C [Isopropyl Methylphenol (IPMP), 4-isopropyl-3-methyl phenol]	≤0.5016	SI index (Synergy Index = Qa/QA + Qb/QB) (S. mutans, listed as IPMP): ≤ 0.5016
4,000 ppm	1,000 ppm	≥ 4000 µg/mL	CC1CCC(C(C)C)C(O)C1 (centres unmarked) [Menthol]	–	–
4,000 ppm	15.6 ppm	125 µg/mL	Cc1ccc(C(C)C)c(O)c1 [Thymol]	≤0.625	SI index (Synergy Index = Qa/QA + Qb/QB) (S. mutans, listed as thymol): ≤ 0.625
–	–	–	CC12CCC(CC1)C(C)(C)O2 [eucalyptol]	–	MIC (alone, even when solubilized with 2% of Pluronic F-127): > 2%; Synergy with raspberry ketone (HPB) (standard synergy assay vs S. mutans): not detected
